Laboratory results as given in patent US6846810B2, “Antiviral nucleoside derivatives” (Roche Palo Alto LLC, priority 2002, dated 2005).

System: HCV replicon RNA (Renilla luciferase HCV replicon cells 2209-23)
Experiment: Renilla luciferase assay (HCV replicon)
Type: cell-based, Hepatitis C virus
Settings: Huh-7, 72 h; 2209-23 replicon cells (human hepatoma Huh7), three days incubation, 50% reduction of replicon level

SMILES | IC50 [nM]
CC(C)(C)C(=O)Nc1ccn([C@@H]2O[C@@](COC(=O)C(C)(C)C)(N=[N+]=[N-])[C@@H](OC(=O)C(C)(C)C)[C@H]2OC(=O)C(C)(C)C)c(=O)n1 [Compound 5, 2,2-Dimethyl-propionic acid (2R,3S,4R,5R)-2-azido-5-[4-(2,2-dimethyl-propionylamino)-2-oxo-2H-pyrimidin-1-yl]-3,4-bis-(2,2-dimethyl-propionyloxy)-tetrahydro-furan-2-ylmethyl ester] | 5330
CC(C)C(N)C(=O)OC[C@@]1(N=[N+]=[N-])O[C@@H](n2ccc(N)nc2=O)[C@H](O)[C@@H]1O (stereo partly drawn) [Compound 18, 1-[(2R,3S,4R,5R)-5-(4-Amino-2-oxo-2H-pyrimidin-1-yl)-2-azido-3,4-dihydroxy-tetrahydro-furan-2-ylmethoxycarbonyl]-2-methyl-propyl-ammonium; chloride] | 2400
[N-]=[N+]=N[C@]1(COC(=O)c2ccccc2)O[C@@H](n2ccc(N)nc2=O)[C@H](OC(=O)c2ccccc2)[C@@H]1OC(=O)c1ccccc1 [Compound 25, Benzoic acid (2R,3S,4R,5R)-3,4-dibenzoyloxy-5-(4-amino-2-oxo-2H-pyrimidin-1-yl)-2-azido-tetrahydro-furan-2-ylmethyl ester] | 2470

System: not given
Experiment: not given
Settings: not given

melting point [°C] | SMILES
77 to 80.1 | CC(=O)Nc1ccn([C@@H]2O[C@@](COC(C)=O)(N=[N+]=[N-])[C@@H](OC(C)=O)[C@H]2OC(C)=O)c(=O)n1
86.5 to 94 | CCCCOC(=O)Nc1ccn([C@@H]2O[C@@](CO)(N=[N+]=[N-])[C@@H](O)[C@H]2O)c(=O)n1
75.9 to 79.9 | CCC(=O)OC[C@@]1(N=[N+]=[N-])O[C@@H](n2ccc(N)nc2=O)[C@H](OC(=O)CC)[C@@H]1OC(=O)CC
142 to 142.8 | CC(C)CC(=O)OC[C@@]1(N=[N+]=[N-])O[C@H](n2ccc(N)nc2=O)[C@H](OC(=O)CC(C)C)[C@@H]1OC(=O)CC(C)C.Cl
134.4 to 136 | CCCCCCOC(=O)Nc1ccn([C@H]2O[C@@](CO)(N=[N+]=[N-])[C@@H](O)[C@H]2O)c(=O)n1
136.2 to 140 | CC(C)(C)C(=O)OC[C@]1(N=[N+]=[N-])O[C@@H](n2ccc(N)nc2=O)[C@@H](OC(=O)C(C)(C)C)[C@H]1OC(=O)C(C)(C)C.Cl
88 to 90.9 | CC(=O)OC[C@@]1(N=[N+]=[N-])O[C@H](n2ccc(N)nc2=O)[C@H](OC(C)=O)[C@@H]1OC(C)=O.Cl
141.1 to 141.8 | COC(=O)Nc1ccn([C@H]2O[C@@](CO)(N=[N+]=[N-])[C@@H](O)[C@H]2O)c(=O)n1
72 to 75.2 | CCC(=O)OC[C@@]1(N=[N+]=[N-])O[C@H](n2ccc(N)nc2=O)[C@H](OC(=O)CC)[C@@H]1OC(=O)CC.Cl
71 to 103.9 | CCCCCCOC(=O)OC[C@@]1(N=[N+]=[N-])O[C@H](n2ccc(N)nc2=O)[C@H](O)[C@@H]1O.O=C(O)C(F)(F)F
70.5 to 81 | CCCCCCCCOC(=O)OC[C@@]1(N=[N+]=[N-])O[C@H](n2ccc(N)nc2=O)[C@H](O)[C@@H]1O.O=C(O)C(F)(F)F
154 to 155 | CCCCCCCCCCCC(=O)OC[C@@]1(N=[N+]=[N-])O[C@H](n2ccc(N)nc2=O)[C@H](O)[C@@H]1O.Cl
187 to 189 | Cc1ccc(C(=O)OC[C@@]2(N=[N+]=[N-])O[C@H](n3ccc(N)nc3=O)[C@H](O)[C@@H]2O)cc1.Cl
178.6 to 179.4 | CCCCCCCCCCCCC(=O)OC[C@]1(N=[N+]=[N-])OC(n2ccc(N)nc2=O)[C@H](O)[C@@H]1O.Cl (some centres unmarked)
154.6 to 155.6 | CCCC(=O)O[C@H]1[C@@H](n2ccc(N)nc2=O)O[C@@](CO)(N=[N+]=[N-])[C@H]1OC(=O)CCC.Cl
94 to 96.8 | CC(=O)Nc1ccn([C@@H]2O[C@@](CO)(N=[N+]=[N-])[C@@H](O)[C@H]2O)c(=O)n1
174.7 to 176.1 | CCCCCCCCCOC(=O)OC[C@@]1(N=[N+]=[N-])O[C@H](n2ccc(N)nc2=O)[C@H](O)[C@@H]1O.Cl
191.1 to 191.9 | CC(C)C(=O)O[C@H]1[C@@H](n2ccc(N)nc2=O)O[C@@](CO)(N=[N+]=[N-])[C@H]1OC(=O)C(C)C.Cl
166.2 to 168.1 | Cl.[N-]=[N+]=N[C@]1(CO)O[C@H](n2ccc(N)nc2=O)[C@H](OC(=O)c2ccccc2)[C@@H]1OC(=O)c1ccccc1
167.5 to 170.6 | CCCC(=O)OC[C@@]1(N=[N+]=[N-])O[C@H](n2ccc(N)nc2=O)[C@H](OC(=O)CCC)[C@@H]1OC(=O)CCC.Cl
164.9 to 168.5 | CCCCCCCCNC(=O)OC[C@@]1(N=[N+]=[N-])O[C@H](n2ccc(N)nc2=O)[C@H](O)[C@@H]1O.Cl
72.9 to 74.7 | CCCCC(=O)OC[C@@]1(N=[N+]=[N-])O[C@H](n2ccc(N)nc2=O)[C@H](OC(=O)CCCC)[C@@H]1OC(=O)CCCC.Cl [Compound 46, (S)-1-((3R,4S,5R)-5-Azido-3,4-bis-pentanoyloxy-5-pentanoyloxymethyl-tetrahydro-furan-2-yl)-2-oxo-1,2-dihydro-pyrimidin-4-yl-ammonium; chloride]

Second part, the compound before the results:

SMILES | melting point [°C]
CCCCC(=O)O[C@H]1[C@@H](n2ccc(N)nc2=O)O[C@@](CO)(N=[N+]=[N-])[C@H]1OC(=O)CCCC.CS(=O)(=O)O | 115.3 to 120.1
CCCCCC(=O)O[C@H]1[C@@H](n2ccc(N)nc2=O)O[C@@](CO)(N=[N+]=[N-])[C@H]1OC(=O)CCCCC.CS(=O)(=O)O | 127.3 to 128.6
CCCCC(=O)OC[C@@]1(N=[N+]=[N-])O[C@H](n2ccc(N)nc2=O)[C@H](O)[C@@H]1O.Cl | 62.1 to 87.7
CC(C)(C)C(=O)Nc1ccn([C@@H]2O[C@@](CO)(N=[N+]=[N-])[C@@H](O)[C@H]2O)c(=O)n1 | 108 to 114
[N-]=[N+]=N[C@]1(CO)O[C@@H](n2ccc(NC(=O)c3ccccc3)nc2=O)[C@H](O)[C@@H]1O | 108.1 to 118.2
Cl.[N-]=[N+]=N[C@]1(COC(=O)c2ccccc2)O[C@H](n2ccc(N)nc2=O)[C@H](O)[C@@H]1O | 163 to 166.5
Cl.[N-]=[N+]=N[C@]1(COC(=O)c2ccccc2)O[C@H](n2ccc(N)nc2=O)[C@H](OC(=O)c2ccccc2)[C@@H]1OC(=O)c1ccccc1 | 208.9 to 210.3
CCCCCCCOC(=O)OC[C@@]1(N=[N+]=[N-])O[C@H](n2ccc(N)nc2=O)[C@H](O)[C@@H]1O.O=C(O)C(F)(F)F | 90.9 to 94.6
CCCCCCCCCC(=O)OC[C@@]1(N=[N+]=[N-])O[C@H](n2ccc(N)nc2=O)[C@H](O)[C@@H]1O.Cl | 180.6 to 181.2
CC(C)(C)OC(=O)Nc1ccn([C@@H]2O[C@@](CO)(N=[N+]=[N-])[C@@H](O)[C@H]2O)c(=O)n1 | 80 to 83.5
CCCCC(=O)O[C@H]1[C@@H](n2ccc(N)nc2=O)O[C@@](CO)(N=[N+]=[N-])[C@H]1OC(=O)CCCC.Cl | 124.3 to 128.4
CCCC(=O)O[C@H]1[C@@H](n2ccc(N)nc2=O)O[C@@](CO)(N=[N+]=[N-])[C@H]1OC(=O)CCC.O=C(O)C(F)(F)F | 91 to 94.9
CCC(=O)O[C@H]1[C@@H](n2ccc(N)nc2=O)O[C@@](CO)(N=[N+]=[N-])[C@H]1OC(=O)CC.Cl | 194.6 to 198.2
CCC(=O)OC[C@@]1(N=[N+]=[N-])O[C@H](n2ccc(N)nc2=O)[C@H](OC(=O)CC)[C@@H]1OC(=O)CC.CS(=O)(=O)O | 149 to 153
CC(C)(C)C(=O)Nc1ccn([C@@H]2O[C@@](COC(=O)C(C)(C)C)(N=[N+]=[N-])[C@@H](OC(=O)C(C)(C)C)[C@H]2OC(=O)C(C)(C)C)c(=O)n1 [Compound 5, 2,2-Dimethyl-propionic acid (2R,3S,4R,5R)-2-azido-5-[4-(2,2-dimethyl-propionylamino)-2-oxo-2H-pyrimidin-1-yl]-3,4-bis-(2,2-dimethyl-propionyloxy)-tetrahydro-furan-2-ylmethyl ester] | 67.4 to 80
CCCCCCCCCCOC(=O)OC[C@@]1(N=[N+]=[N-])O[C@H](n2ccc(N)nc2=O)[C@H](O)[C@@H]1O.O=C(O)C(F)(F)F [Compound 86, (S)-1-((3R,4S,5R)-5-Azido-5-decyloxycarbonyloxymethyl-3,4-dihydroxy-tetrahydro-furan-2-yl)-2-oxo-1,2-dihydro-pyrimidin-4-yl-ammonium; trifluoro-acetate] | 75 to 77.7
